Source: patent US4424373A, “Secalonic acids” (priority 1979, dated 1984)
Values after ≈ are worked out from the molar mass of the structure shown.

Experiments:
Bacilus subtilis CPI 219 = experiment: MIC against Bacilus subtilis CPI 219 (Table 6); assay type: cell-based
[1] = test system: Micrococcus flavis ATCC 10240; experiment: MIC against Micrococcus flavis ATCC 10240 (Table 6); assay type: cell-based; conditions: ATCC10240
Sarcina lutea ATCC 9341 = experiment: MIC against Sarcina lutea ATCC 9341 (Table 6); assay type: cell-based; conditions: Micrococcus luteus, ATCC9341
[2] = test system: Corynebacterium diphtheriae P.W.8; experiment: MIC against Corynebacterium diphtheriae P.W.8 (Table 6); assay type: cell-based
[3] = test system: Trichophyton mentagrophytes IAM 8051; experiment: MIC against Trichophyton mentagrophytes IAM 8051 (Table 6); assay type: cell-based; conditions: IAM8051

SMILES	MIC (Bacilus subtilis CPI 219)	MIC [1]	MIC (Sarcina lutea ATCC 9341)	MIC [2]	MIC [3]	solubility in chloroform
COC(=O)C12Oc3c(-c4ccc(O)c5c4OC4(C(=O)OC)C(=C(O)CC(C)C4O)C5=O)ccc(O)c3C(=O)C1=C(O)CC(C)C2O (centres unmarked) [4,4'-SD, secalonic acid D having a 4,4'-linkage]	12.5 µg/mL (≈ 19.6 µM)	12.5 µg/mL (≈ 19.6 µM)	3.1 µg/mL (≈ 4.85 µM)	6.3 µg/mL (≈ 9.87 µM)	1.6 µg/mL (≈ 2.51 µM)	–
COC(=O)C12Oc3ccc(-c4ccc5c(c4O)C(=O)C4=C(O)CC(C)C(O)C4(C(=O)OC)O5)c(O)c3C(=O)C1=C(O)CC(C)C2O (centres unmarked) [2,2'-SD, secalonic acid D having a 2,2'-linkage, reference compound]	> 100 µg/mL	100 µg/mL (≈ 157 µM)	> 100 µg/mL	50 µg/mL (≈ 78.3 µM)	12.5 µg/mL (≈ 19.6 µM)	–
COC(=O)C12Oc3ccc(-c4ccc5c(c4O)C(=O)C4=C(O)CC(C)C(O)C4(C(=O)OC)O5)c(O)c3C(=O)C1=C(O)CC(C)C2O (single isomer, unassigned) [Compound I, secalonic acid A having a 2,2'-linkage, reference compound]	–	–	–	–	–	insoluble
COC(=O)[C@]12Oc3ccc(-c4ccc5c(c4O)C(=O)C4=C(O)C[C@@H](C)[C@H](OC=O)[C@@]4(C(=O)OC)O5)c(O)c3C(=O)C1=C(O)C[C@@H](C)[C@@H]2OC=O [diformyl derivative of Compound I, diformyl derivative of secalonic acid A having a 2,2'-linkage]	–	–	–	–	–	soluble
COC(=O)C12Oc3ccc(-c4ccc(O)c5c4OC4(C(=O)OC)C(=C(O)CC(C)C4O)C5=O)c(O)c3C(=O)C1=C(O)CC(C)C2O (centres unmarked) [2,4'-SD, secalonic acid D having a 2,4'-linkage]	50 µg/mL (≈ 78.3 µM)	25 µg/mL (≈ 39.1 µM)	12.5 µg/mL (≈ 19.6 µM)	12.5 µg/mL (≈ 19.6 µM)	3.1 µg/mL (≈ 4.85 µM)	–
